# Results from patent US5049550A, “Diadenosine 5', 5'"-p^1, p^4,-tetraphosphate analogs as antithrombotic agents” (Worcester Foundation for Experimental Biology, priority 1988, dated 1991).
# Entries after “also recorded” stand apart in the source; their conditions may differ.
# Tests used:
# [1] = system: aggregation of platelets induced by ADP; experiment: ADP-induced aggregation of platelets recovered from AP4 A-infused rabbits; assay type: in vivo, rabbit
# Method: (§1) After preliminary trials, a standard AP4 A infusion protocol was established as follows: A dose of AP4 A at 50 mg/kg was reconstituted in 10 ml of normal saline and infused by pump at a uniform rate over two hours. Control rabbits received 10 ml of saline alone. The intracarotid cannula was inserted, and the re-establishment of blood flow timed at 15 minutes into the infusion. Upon the completion of infusion at 2 hours, the intracarotid tubing was removed, and its contents flushed out into a petri dish. The presence of a clot or of liquid blood contents was noted.
# (§2) Rabbit carotid arterial blood was collected in 3.8% sodium citrate (9 volumes blood to 1 volume citrate). Platelet rich plasma (PRP) and platelet poor plasma (PPP) were prepared by centrifugation at 150 g and 1,000 g for 10 minutes respectively. Aggregation studies were performed in a Chrono-Log (Havertown, Pa.) aggregometer with ADP or collagen as aggregating agents. ADP (Sigma Chemical Co.) was used in a final concentration of 2×10^-5 M. Calf skin collagen (Sigma Chemical Co.) was used in a final concentration of 200 ug/ml.
# [2] = plasma; cited from earlier work
# [3] = system: Intracarotid Artery Thrombosis; experiment: Intracarotid cannula arterial thrombosis model in rabbits; assay type: in vivo, rabbit
# Method: Gurewich, V. and Lipinski, B. Thrombosis Research, 9:101 (1976); Louie, S. and Gurewich, V. Thrombosis Research, 30:323-335 (1983).
# (§3) Male, New Zealand white rabbits, weighing 2-2.5 kg., were anesthetized with ketamine hydrochloride (100 mg/kg intramuscularly). AP4 A (Boehringer (100 Mannheim Biochemicals, Indianapolis, Ind.), or saline control was infused via a marginal ear vein. A segment of the left common carotid artery was isolated by vascular clamps. A 1 cm. length of polyethylene tubing (PE-90, Clay Adams, Parsippany, N.Y.) was inserted, secured by silk ligatures, and the blood flow re-established by removing the clamps. Blood was sampled from the right carotid artery for assays of AP4 A and ATP, and for platelet aggregation studies.
# as §1
# Twenty-five rabbits each were assigned to the experimental group that received AP4 A (50 mg/kg), and the control group that received normal saline alone. The incidence of clot formation in the intracarotid cannula in the two groups was compared by the Chi-Square test.
# Initially, twelve rabbits received a constant infusion of E10 over a 2 hour period at a dosage of 100 mg in 10 ml. These intravenous infusions were performed as described above for AP4 A.
# In addition, 30 mg of E10 in 3 ml saline was administered as a single injection over a one minute time span at the beginning of the cannulation period.
# [4] = Assay of blood AP4 A and ATP before and after AP4 A infusion in rabbits (in vivo); set-up: species or system rabbit
# Method: as §3, §1
# (§4) Blood samples were collected from the carotid artery through a catheter before and after (0, 10, 20, 40, and 60 minutes) infusion of AP4 A. Blood was anticoagulated by mixing with 0.15 volume of acid-citrate-dextrose solution. An aliquot of blood collected at the end of AP4 A infusion (to sample) was incubated at 37° C. and sampled at 10, 20, 40, and 60 minutes to evaluate the in vitro decay of AP4 A. Blood samples of […] 3% perchloric acid and kept at 0° C. for 30 minutes with intermittent vortexing. The acid soluble fraction was recovered by centrifugation at 1000 g for 10 minutes and neutralized by 5M K2 CO3. It was then kept at -80° C. until assay of the nucleotides. The AP4 A assay was performed by coupling the phosphodiesterase and luciferase reactions in a luminometer (Model 6100 Picolite, Packard, Downers Grove, Ill.). The detailed method of AP4 A and ATP assays has been reported elsewhere (Kim, B. K., Chao, F. C., Leavitt, R., Fauci, A. S., Meyers, K. M. and Zamecnik, P. C. Blood, 66:735-737, 1985).
# (§5) The disappearance of infused AP4 A in the circulation and in incubated blood was studied in 2 rabbits. Mean values of hemoglobin, hematocrit and platelet count were 10.1 g/dl, 30.8% and 362,000/ul respectively. The blood content of AP4 A in the rabbits was 51 nmol/1 blood prior to infusion. […] Kim, B. K. et al., Blood, 66:735-737 (1985); Flodgaard, H., Zamecnik, P. C. Meyers, K. and Klenow, H., Thrombosis Research, 37:345-351 (1986). […] A very rapid disappearance of infused AP4 A was observed, with complete clearance within 10 minutes after infusion. When blood samples obtained at the end of AP4 A infusion were incubated at 37° C., only 15-fold and 4-fold levels of AP4 A, as compared to baseline could be detected after 10 minutes and 20 minutes respectively.
# [5] = system: collagen-induced aggregation of platelets; experiment: Collagen-induced aggregation of platelets recovered from AP4 A-infused rabbits; assay type: in vivo, rabbit; details: 50 mg per kg over 2 hours; collagen 200 ug/ml (FIG. 4)
# Method: as §1, §2
# [6] = system: ADP induced platelet aggregation; details: in vitro; even when aggregation has progressed to 60% completion; cited from earlier work
# [7] = Decay of AP4 A / ATP in incubated rabbit blood collected at the end of AP4 A infusion (ex vivo); assay type: in vitro ADME; details: for level of AP4 A as compared to baseline: 37° C.
# Method: as §4, §5
# [8] = AP4 A 50 mg/kg infused over 2 hours, 25 rabbits
# [9] = in vivo, before infusion of AP4 A
smiles,measurement,setting,value
"Nc1ncnc2c1ncn2[C@@H]1O[C@H](COP(=O)(O)OP(=O)(O)OP(=O)(O)OP(=O)(O)OC[C@H]2O[C@@H](n3cnc4c(N)ncnc43)[C@H](O)[C@@H]2O)[C@@H](O)[C@H]1O [AP4 A, diadenosine 5',5'""-p^1,p^4 -tetraphosphate]",aggregation of platelets induced by ADP after AP4 A infusion,"[1]; 50 mg per kg over 2 hours, ADP 2×10^-5 M (FIG. 4)",diminished response to ADP-induced aggregation; also recorded: markedly blunted
same,inhibition of ADP-induced platelet aggregation on administration to a mammal,"[1]; rabbit, in vivo",markedly inhibit ADP-induced platelet aggregation
same,degradation products,[2],degraded to AMP and ATP
same,% CLOTS (incidence of thrombosis),[3]; [8],56%
same,Clot Absent (rabbits),[3]; [8],11
same,Clot Present (rabbits),[3]; [8],14
same,difference in dimension and weight of clots versus controls,[3]; AP4 A 50 mg/kg over 2 hours,no significant difference
same,level of ATP after AP4 A infusion,[4]; an initial increment and a late increment,bimodal increments
same,increase of blood AP4 A at the end of infusion,[4]; end of infusion,125 fold of baseline
same,concentration,"[4]; end of infusion, 50 mg/kg",6400 nM
same,half-life in rabbit blood,[4]; in vivo and ex vivo,short half-life
same,"ATP, umol/l blood","[4]; in vivo, 0 min after infusion of AP4 A (50 mg/kg over 2 h)",579.0 umol/l blood
same,"ATP, umol/l blood","[4]; in vivo, 10 min after infusion of AP4 A (50 mg/kg over 2 h)",573.5 umol/l blood
same,"ATP, umol/l blood","[4]; in vivo, 20 min after infusion of AP4 A (50 mg/kg over 2 h)",564.0 umol/l blood
same,"ATP, umol/l blood","[4]; in vivo, 40 min after infusion of AP4 A (50 mg/kg over 2 h)",562.0 umol/l blood
same,"ATP, umol/l blood","[4]; in vivo, 60 min after infusion of AP4 A (50 mg/kg over 2 h)",629.5 umol/l blood
same,"AP4 A, umol/l blood",[4]; [9],0.051 umol/l blood
same,"ATP, umol/l blood",[4]; [9],522.9 umol/l blood
same,concentration at 0 h,"[4]; rabbit, blood, iv, in vivo, 0 min after infusion (50 mg/kg over 2 h), read-out: AP4 A, umol/l blood",6.41 µmol/L
same,concentration at 10 min,"[4]; rabbit, blood, iv, in vivo, 10 min after infusion (50 mg/kg over 2 h), read-out: AP4 A, umol/l blood",0.043 µmol/L
same,concentration at 20 min,"[4]; rabbit, blood, iv, in vivo, 20 min after infusion (50 mg/kg over 2 h), read-out: AP4 A, umol/l blood",0.045 µmol/L
same,concentration at 40 min,"[4]; rabbit, blood, iv, in vivo, 40 min after infusion (50 mg/kg over 2 h), read-out: AP4 A, umol/l blood",0.05 µmol/L
same,concentration at 1 h,"[4]; rabbit, blood, iv, in vivo, 60 min after infusion (50 mg/kg over 2 h), read-out: AP4 A, umol/l blood",0.042 µmol/L
same,time to complete clearance after infusion,"[4]; rabbits, after end of infusion",≤ 10 min
same,blood content of AP4 A prior to infusion,"[4]; rabbits, prior to infusion",51 nmol/1 blood
same,blood content of AP4 A: fold lower than the level observed in man,"[4]; rabbits, prior to infusion, versus man",7.3 fold
same,effect on collagen-induced aggregation after AP4 A infusion,[5],little effect
same,effect on ADP induced platelet aggregation,[6],"competitively inhibits ADP induced platelet aggregation, causing an immediate dispersion of aggregated platelets"
same,level of AP4 A as compared to baseline,"[7]; ex vivo, after 10 minutes",15 fold
same,level of AP4 A as compared to baseline,"[7]; ex vivo, after 20 minutes",4 fold
same,"ATP, umol/l blood","[7]; ex vivo, 10 min at 37° C.",570.1 umol/l blood
same,"ATP, umol/l blood","[7]; ex vivo, 20 min at 37° C.",559.3 umol/l blood
same,"ATP, umol/l blood","[7]; ex vivo, 40 min at 37° C.",551.5 umol/l blood
same,"ATP, umol/l blood","[7]; ex vivo, 60 min at 37° C.",572.0 umol/l blood
same,ex vivo decay compared to in vivo clearance,[7]; rabbit blood,significantly longer; also recorded: slightly longer
same,concentration at 10 min,"[7]; rabbit, blood, iv, 50 mg/kg, ex vivo, 10 min at 37° C., read-out: AP4 A, umol/l blood",0.799 µmol/L
same,concentration at 20 min,"[7]; rabbit, blood, iv, 50 mg/kg, ex vivo, 20 min at 37° C., read-out: AP4 A, umol/l blood",0.21 µmol/L
same,concentration at 40 min,"[7]; rabbit, blood, iv, 50 mg/kg, ex vivo, 40 min at 37° C., read-out: AP4 A, umol/l blood",0.041 µmol/L
same,concentration at 1 h,"[7]; rabbit, blood, iv, 50 mg/kg, ex vivo, 60 min at 37° C., read-out: AP4 A, umol/l blood",0.037 µmol/L
